Results published in patent US20240067693A1, “POLYPEPTIDES AND USES THEREOF” (MEDIMMUNE LIMITED, priority 2020, published 2024).
Numbered stars: 1 amine (or outer) side, 2 acyl side, 3 side chain; on linkers, the order of the positions; unused ones are H or OH. Bridge positions count the residues as written; N and C are the ends. Square brackets hold non-standard residues; d marks the D form. Side chains are listed from the residue outwards. Peptide text beside a SMILES is read from it. * marks the point of attachment. C20 diacid = O=C(O)CCCCCCCCCCCCCCCCCCC(=O)*; C18 diacid = O=C(O)CCCCCCCCCCCCCCCCC(=O)*; γGlu = O=C(O)[C@H](CCC(=O)[*:2])N[*:1]; αMeF = C[C@](N)(Cc1ccccc1)C(=O)O; Dab = NCC[C@H](N)C(=O)O; Aib = CC(C)(N)C(=O)O

How the values were obtained:
[1] = biological target: T1, human amylin receptor (calcitonin receptor co-expressed with receptor activity modifying protein, RAMP3) (hAMYR3) (Homo sapiens, UniProt O60896+P30988); assay: cAMP production in 1321N1 cells with stable recombinant expression of human amylin receptor (hAMYR3); format: cell-based; conditions: for Ratio (selectivity hAMYR vs hCTR, ratio of EC50 values at the two receptors): EC50 hCTR / EC50 hAMYR3; for EC50: cAMP, 1321N1 cells, assay buffer with 0.1% BSA, read-out: EC50 (pM) hAMYR3
T1 construct: expressed in transfected cells
T1 sequence (P30988 25-474): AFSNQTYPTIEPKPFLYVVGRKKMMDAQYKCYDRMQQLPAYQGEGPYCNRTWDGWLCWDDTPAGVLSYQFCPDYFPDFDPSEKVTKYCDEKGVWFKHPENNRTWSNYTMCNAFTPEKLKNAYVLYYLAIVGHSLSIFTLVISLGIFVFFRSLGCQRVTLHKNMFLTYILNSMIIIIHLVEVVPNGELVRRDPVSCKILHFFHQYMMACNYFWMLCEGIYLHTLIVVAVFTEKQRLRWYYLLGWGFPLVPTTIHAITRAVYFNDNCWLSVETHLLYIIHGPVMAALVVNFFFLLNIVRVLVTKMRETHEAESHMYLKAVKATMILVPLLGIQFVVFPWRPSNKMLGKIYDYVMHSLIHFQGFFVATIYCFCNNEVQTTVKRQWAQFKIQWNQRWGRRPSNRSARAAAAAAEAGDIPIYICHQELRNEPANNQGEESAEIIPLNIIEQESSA
T1 sequence (O60896 24-148 partner): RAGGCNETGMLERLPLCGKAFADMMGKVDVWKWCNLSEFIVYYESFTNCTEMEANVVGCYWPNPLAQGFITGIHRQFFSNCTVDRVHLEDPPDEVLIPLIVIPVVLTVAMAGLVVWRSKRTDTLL
How it was run: (§1)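 Receptor-expressing cells (human receptors in 1321N1, rat receptors in HEK) incubated 30 min at room temperature with peptide in HBSS/HEPES pH 7.4, 0.1% BSA, 0.5 mM IBMX. cAMP read by HTRF; EC50 from 4-parameter fit as % of maximal amylin or calcitonin response.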

[2] = biological target: T2, human calcitonin receptor (hCTR) (Homo sapiens, UniProt P30988); assay: cAMP production in 1321N1 cells with stable recombinant expression of human calcitonin receptor (hCTR); format: cell-based; conditions: cAMP, 1321N1 cells, assay buffer with 0.1% BSA; read-out: EC50 (pM) hCTR
T2 construct: expressed in transfected cells
T2 sequence (P30988 25-474): T1 sequence (P30988 25-474)
How it was run: as §1

Ratio (selectivity hAMYR vs hCTR, ratio of EC50 values at the two receptors) [1] | EC50 [2] [pM] | EC50 [1] [pM] | SMILES
8 | 10200 |  | CC[C@H](C)[C@H](NC(=O)[C@H](C)NC(=O)[C@@H]1CCCN1C(=O)[C@H](Cc1ccccc1)NC(=O)[C@H](CC(N)=O)NC(=O)C(C)(C)NC(=O)[C@H](CO)NC(=O)[C@H](CO)NC(=O)[C@H](Cc1c[nH]cn1)NC(=O)[C@@H](NC(=O)[C@H](CC(C)C)NC(=O)[C@H](Cc1ccccc1)NC(=O)[C@H](CC(N)=O)NC(=O)[C@H](C)NC(=O)[C@H](CC(C)C)NC(=O)[C@H](CCCNC(=N)N)NC(=O)[C@H](CCC(N)=O)NC(=O)[C@@H](NC(=O)[C@H](C)NC(=O)[C@@H]1CSSC[C@H](NC(=O)[C@@H](N)CCCCNC(=O)CC[C@H](NC(=O)CC[C@H](NC(=O)CCCCCCCCCCCCCCCCCCC(=O)O)C(=O)O)C(=O)O)C(=O)N[C@@H](CC(N)=O)C(=O)N[C@@H]([C@@H](C)O)C(=O)N[C@@H](C)C(=O)N[C@@H]([C@@H](C)O)C(=O)N1)[C@@H](C)O)C(C)C)C(=O)N[C@@H](CC(C)C)C(=O)N[C@@H](CO)C(=O)N1CCC[C@H]1C(=O)N[C@H](C(=O)N[C@@H](CC(N)=O)C(=O)N[C@H](C(=O)NCC(=O)N[C@@H](CO)C(=O)N[C@@H](CCN)C(=O)N[C@H](C(=O)N[C@@H](Cc1ccc(O)cc1)C(N)=O)[C@@H](C)O)C(C)C)[C@@H](C)O [Peptide 125, K(γE-γE-C20diacid)[CNTATC]ATQRLANFLVHSS(Aib)NFPAILSPTNVGS(Dab)TY-amide] (H-K([γGlu-γGlu-C20 diacid])CNTATCATQRLANFLVHSS[Aib]NFPAILSPTNVGS[Dab]TY-NH2; disulfide 2-7; N-terminus assumed)
11 | 3150 | 288 | CC(C)C[C@H](NC(=O)[C@H](CCCNC(=N)N)NC(=O)[C@H](CCC(N)=O)NC(=O)[C@@H](NC(=O)[C@H](C)NC(=O)[C@@H]1CSSC[C@H](NC(=O)[C@H](CCCCN)NC(=O)[C@@H](N)CCCCNC(=O)CC[C@H](NC(=O)CCCCCCCCCCCCCCCCC(=O)O)C(=O)O)C(=O)N[C@@H](CC(N)=O)C(=O)N[C@@H]([C@@H](C)O)C(=O)N[C@@H](C)C(=O)N[C@@H]([C@@H](C)O)C(=O)N1)[C@@H](C)O)C(=O)N[C@@H](C)C(=O)N[C@@H](CC(N)=O)C(=O)N[C@@H](Cc1ccccc1)C(=O)N[C@@H](CC(C)C)C(=O)N[C@H](C(=O)N[C@@H](Cc1c[nH]cn1)C(=O)N[C@@H](CO)C(=O)N[C@@H](CO)C(=O)NC(C)(C)C(=O)N[C@@H](CC(N)=O)C(=O)N[C@@H](Cc1ccccc1)C(=O)NCC(=O)N1CCC[C@H]1C(=O)NC(C)(C)C(=O)N[C@@H](CC(C)C)C(=O)N1CCC[C@H]1C(=O)N1CCC[C@H]1C(=O)N[C@H](C(=O)N[C@@H](CC(N)=O)C(=O)N[C@H](C(=O)NCC(=O)N[C@@H](CO)C(=O)N[C@@H](CC(N)=O)C(=O)N[C@H](C(=O)N[C@@H](Cc1ccc(O)cc1)C(N)=O)[C@@H](C)O)C(C)C)[C@@H](C)O)C(C)C [Peptide 78, K(γE-C18diacid)K[CNTATC]ATQRLANFLVHSS(Aib)NFGP(Aib)LPPTNVGSNTY-amide] (H-K([γGlu-C18 diacid])KCNTATCATQRLANFLVHSS[Aib]NFGP[Aib]LPPTNVGSNTY-NH2; disulfide 3-8; N-terminus assumed)
7 | 2800 | 409 | CC[C@H](C)[C@H](NC(=O)[C@@H]1CCCN1C(=O)CNC(=O)[C@](C)(Cc1ccccc1)NC(=O)[C@H](CC(N)=O)NC(=O)[C@H](CC(N)=O)NC(=O)[C@H](CO)NC(=O)[C@H](CO)NC(=O)[C@H](Cc1c[nH]cn1)NC(=O)C(C)(C)NC(=O)[C@H](CC(C)C)NC(=O)[C@H](Cc1ccccc1)NC(=O)[C@H](CC(N)=O)NC(=O)[C@H](C)NC(=O)[C@H](CC(C)C)NC(=O)[C@H](CCCNC(=N)N)NC(=O)[C@H](CCC(N)=O)NC(=O)[C@@H](NC(=O)[C@H](C)NC(=O)[C@@H]1CSSC[C@H](NC(=O)[C@@H](N)CCCCNC(=O)CC[C@H](NC(=O)CC[C@H](NC(=O)CCCCCCCCCCCCCCCCC(=O)O)C(=O)O)C(=O)O)C(=O)N[C@@H](CC(N)=O)C(=O)N[C@@H]([C@@H](C)O)C(=O)N[C@@H](C)C(=O)N[C@@H]([C@@H](C)O)C(=O)N1)[C@@H](C)O)C(=O)N[C@@H](CC(C)C)C(=O)N1CCC[C@H]1C(=O)N1CCC[C@H]1C(=O)N[C@H](C(=O)N[C@@H](CC(N)=O)C(=O)N[C@H](C(=O)NCC(=O)N[C@@H](CO)C(=O)N[C@@H](CC(N)=O)C(=O)N[C@H](C(=O)N[C@@H](Cc1ccc(O)cc1)C(N)=O)[C@@H](C)O)C(C)C)[C@@H](C)O [Peptide 26, K(γE-γE-C18diacid)[CNTATC]ATQRLANFL(Aib)HSSNN(αMePhe)GPILPPTNVGSNTY-amide] (H-K([γGlu-γGlu-C18 diacid])CNTATCATQRLANFL[Aib]HSSNN[αMeF]GPILPPTNVGSNTY-NH2; disulfide 2-7)
7 | 493 | 70 | CC[C@H](C)[C@H](NC(=O)[C@@H]1CCCN1C(=O)CNC(=O)[C@H](Cc1ccccc1)NC(=O)[C@H](CC(N)=O)NC(=O)C(C)(C)NC(=O)[C@H](CO)NC(=O)[C@H](CO)NC(=O)[C@H](Cc1c[nH]cn1)NC(=O)[C@@H](NC(=O)[C@H](CC(C)C)NC(=O)[C@H](Cc1ccccc1)NC(=O)[C@H](CC(N)=O)NC(=O)[C@H](C)NC(=O)[C@H](CC(C)C)NC(=O)[C@H](CCCNC(=N)N)NC(=O)[C@H](CCC(N)=O)NC(=O)[C@@H](NC(=O)[C@H](C)NC(=O)[C@@H]1CSSC[C@H](NC(=O)[C@@H](N)CCCCNC(=O)CC[C@H](NC(=O)CCCCCCCCCCCCCCCCC(=O)O)C(=O)O)C(=O)N[C@@H](CC(N)=O)C(=O)N[C@@H]([C@@H](C)O)C(=O)N[C@@H](C)C(=O)N[C@@H]([C@@H](C)O)C(=O)N1)[C@@H](C)O)C(C)C)C(=O)N[C@@H](CC(C)C)C(=O)N1CCC[C@H]1C(=O)N1CCC[C@H]1C(=O)N[C@H](C(=O)N[C@@H](CC(N)=O)C(=O)N[C@H](C(=O)NCC(=O)N[C@@H](CO)C(=O)N[C@@H](CC(N)=O)C(=O)N[C@H](C(=O)N[C@@H](Cc1ccc(O)cc1)C(N)=O)[C@@H](C)O)C(C)C)[C@@H](C)O [Peptide 56, K(γE-C18diacid)[CNTATC]ATQRLANFLVHSS(Aib)NFGPILPPTNVGSNTY-amide] (H-K([γGlu-C18 diacid])CNTATCATQRLANFLVHSS[Aib]NFGPILPPTNVGSNTY-NH2; disulfide 2-7; N-terminus assumed)
99 | 16000 | 161 | CC[C@H](C)[C@H](NC(=O)[C@@H]1CCCN1C(=O)CNC(=O)[C@H](Cc1ccccc1)NC(=O)[C@H](CC(N)=O)NC(=O)C(C)(C)NC(=O)[C@H](CO)NC(=O)[C@H](CO)NC(=O)[C@H](Cc1c[nH]cn1)NC(=O)[C@H](CCCNC(=N)N)NC(=O)[C@H](CC(C)C)NC(=O)[C@H](Cc1ccccc1)NC(=O)[C@H](CC(N)=O)NC(=O)[C@H](C)NC(=O)[C@H](CC(C)C)NC(=O)[C@H](CCCNC(=N)N)NC(=O)[C@H](CCC(N)=O)NC(=O)[C@@H](NC(=O)[C@H](C)NC(=O)[C@@H]1CSSC[C@H](NC(=O)[C@@H](N)CCCCNC(=O)CC[C@H](NC(=O)CC[C@H](NC(=O)CCCCCCCCCCCCCCCCC(=O)O)C(=O)O)C(=O)O)C(=O)N[C@@H](CC(N)=O)C(=O)N[C@@H]([C@@H](C)O)C(=O)N[C@@H](C)C(=O)N[C@@H]([C@@H](C)O)C(=O)N1)[C@@H](C)O)C(=O)N[C@@H](CC(C)C)C(=O)N1CCC[C@H]1C(=O)N1CCC[C@H]1C(=O)N[C@H](C(=O)N[C@@H](CC(N)=O)C(=O)N[C@H](C(=O)NCC(=O)N[C@@H](CO)C(=O)N[C@@H](CC(N)=O)C(=O)N[C@H](C(=O)N[C@@H](Cc1ccc(O)cc1)C(N)=O)[C@@H](C)O)C(C)C)[C@@H](C)O [Peptide 75, K(γE-γE-C18diacid)[CNTATC]ATQRLANFLRHSS(Aib)NFGPILPPTNVGSNTY-amide] (H-K([γGlu-γGlu-C18 diacid])CNTATCATQRLANFLRHSS[Aib]NFGPILPPTNVGSNTY-NH2; disulfide 2-7)
